Measured values from patent publication US20140057915A1, “KINASE INHIBITORS” (TOPIVERT PHARMA LIMITED, priority 2012, published 2014).
pEC50, pIC50: −log10 of the molar value.

What was measured:
[1] = target: cSrc (Homo sapiens, UniProt P12931); test: c-Src enzyme inhibition (FRET); assay type: biochemical
Procedure, shortened: (§1)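 Enzyme was preincubated with test compound (added as 4, 0.4, 0.04 or 0.004 μg/mL solutions) for 2 hr at RT. FRET peptide (8 μM solution) and ATP solution (800 μM for c-Src, 60 μM for Syk) were then added for 1 hr, followed by 1 hr protease development.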

[2] = target: Syk (Homo sapiens, UniProt P43405); test: Syk enzyme inhibition (FRET); assay type: biochemical
Procedure, shortened: as §1

[3] = target: T1, GSK3α (Homo sapiens, UniProt P49840); test: GSK 3α enzyme inhibition (FRET), Method 2; assay type: biochemical; settings: Table 4a2, different laboratory
[4] = system: IL-8 release, PBMCs; test: LPS-induced IL-8 release in PBMC cells; assay type: cell-based; settings: Homo sapiens, LPS stimulated, read-out: IC50 Values for Inhibition of Cytokine Release, PBMCs, IL-8
Experimental: (b) LPS-Induced TNFα/IL-8 Release in PBMC Cells
Peripheral blood mononuclear cells (PBMCs) from healthy subjects are separated from whole blood using a density gradient (Lymphoprep, Axis-Shield Healthcare). The PBMCs are seeded in 96 well plates and treated with compounds at the desired concentration for 2 hours before addition of 1 ng/ml LPS (Escherichia Coli 0111:B4 from Sigma Aldrich) for 24 hours under normal tissue culture conditions (37° C., 5% CO2). The supernatant is harvested for determination of […] concentrations by sandwich ELISA (Duo-set, R&D systems) and read on the fluorescence microplate reader (Varioskan® Flash, ThermoFisher Scientific).

[5] = system: IL-2 release, PBMCs; test: IL-2 release in CD3/CD28 stimulated PBMC cells; assay type: cell-based; settings: Homo sapiens, read-out: IC50 Values for Inhibition of Cytokine Release, PBMCs, IL-2
Experimental: (§2) (c) IL-2 and IFN Gamma Release in CD3/CD28 Stimulated PBMC Cells
(§3) PBMCs from healthy subjects are separated from whole blood using a density gradient (Lymphoprep, Axis-Shield Healthcare). Cells are added to a 96 well plate pre-coated with a mixture of […] monoclonal antibodies (0.3 ug/ml eBioscience and 3 ug/ml BD Pharmingen respectively). Compound at the desired concentration is then added to the wells and the plate left for 3 days under normal tissue culture conditions. Supernatants are harvested and IL-2 and IFN gamma release determined by Sandwich ELISA (Duo-set, R&D System). The IC50 is determined from the dose response curve.

[6] = system: IFN gamma release, PBMCs; test: IFN gamma release in CD3/CD28 stimulated PBMC cells; assay type: cell-based; settings: Homo sapiens, read-out: IC50 Values for Inhibition of Cytokine Release, PBMCs, IFNγ
Experimental: as §2, §3

[7] = system: PBMC cells; test: Cell mitosis assay; assay type: cell-based; settings: Homo sapiens, read-out: % Inhibition of mitosis in PBMC cells at 5 μg/mL
Experimental: PBMCs from healthy subjects are separated from whole blood (Quintiles, London, UK) using a density gradient (Histopaque®-1077, Sigma-Aldrich, Poole, UK). The PBMCs (3 million cells per sample) are subsequently treated with 2% PHA (Sigma-Aldrich, Poole, UK) for 48 hr, followed by a 20 hr exposure to varying concentrations of test compounds. At 2 hr before collection, PBMCs are treated with demecolcine (0.1 μg/mL; Invitrogen, Paisley, UK) to arrest cells in metaphase. […] Fluorescence is observed using an ATTUNE flow cytometer (Invitrogen, Paisley, UK), gating for lymphocytes.

[8] = target: T1, GSK3α; test: GSK 3α enzyme inhibition (FRET), Method 1; assay type: biochemical; settings: Table 4a1
Procedure, shortened: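 GSK3α was preincubated with test compound for 2 hr at RT, then a FRET peptide substrate and ATP were added for 1 hr. Protease development for 1 hr cleaved only non-phosphorylated peptide, and phosphorylation was read as the coumarin/fluorescein emission ratio. Concentrations given are those of the added solutions: enzyme 500 ng/mL, peptide 8 μM, ATP 40 μM.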

[9] = system: TNFα release, d-U937 cells; test: LPS-induced TNFα release in d-U937 cells; assay type: cell-based; settings: Homo sapiens, dU937; relative to 10 μg/mL BIRB796; Table 4c1; read-out: LPS Induced Release of Cytokine in d-U937 Cells, TNFα REC50
Procedure, shortened: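 U937 cells differentiated with PMA (100 ng/mL, 48–72 hr), pre-treated with compound for 2 hr, then stimulated with E. coli LPS (0.1 μg/mL) for 4 hr. Supernatant cytokine measured by sandwich ELISA; inhibition versus vehicle control, REC50 from concentration-response curve.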

[10] = system: IL-8 release, d-U937 cells; test: LPS-induced IL-8 release in d-U937 cells; assay type: cell-based; settings: Homo sapiens, dU937; Table 4c1; read-out: LPS Induced Release of Cytokine in d-U937 Cells, IL-8 IC50
Procedure, shortened: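 IL-8 release after a 4 hr challenge with LPS (0.1 μg/mL, E. coli 0111:B4) following a 2 hr compound pretreatment. Cells were human U937 monocytes differentiated to macrophage-type with PMA 100 ng/mL for 48–72 hr. Relative 50% effective concentration derived from concentration–response data.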

[11] = system: ICAM-1 expression, BEAS2B cells; test: Poly I:C-induced ICAM-1 expression in BEAS2B cells; assay type: cell-based; settings: Homo sapiens, BEAS-2B; read-out: Poly IC induced ICAM1 in BEAS2B, IC50
Procedure, shortened: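 BEAS2B human bronchial epithelial cells pre-incubated 2 h with compound, then transfected with poly I:C (1 μg/mL) plus Oligofectamine. After 18 h, cell-surface ICAM-1 read by cell-based ELISA (A450–655), normalised to Crystal Violet cell number (A595); inhibition calculated against vehicle control at each concentration.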

[12] = system: d-U937 cells; test: Cell viability: MTT assay; assay type: cell-based, human; settings: 1 μg/mL
Procedure, shortened: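 Differentiated U937 cells exposed to compound at 1 or 10 μg/mL, either 4 h in 5% FCS or 24 h in 10% FCS RPMI1640. MTT then added for 1 h, formazan dissolved in DMSO and read at 550 nm. Viability loss given as % versus 0.5% DMSO vehicle; apparent gains appear negative.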

[13] = Table 4a2, different laboratory

Sequence of cSrc (P12931 whole entry): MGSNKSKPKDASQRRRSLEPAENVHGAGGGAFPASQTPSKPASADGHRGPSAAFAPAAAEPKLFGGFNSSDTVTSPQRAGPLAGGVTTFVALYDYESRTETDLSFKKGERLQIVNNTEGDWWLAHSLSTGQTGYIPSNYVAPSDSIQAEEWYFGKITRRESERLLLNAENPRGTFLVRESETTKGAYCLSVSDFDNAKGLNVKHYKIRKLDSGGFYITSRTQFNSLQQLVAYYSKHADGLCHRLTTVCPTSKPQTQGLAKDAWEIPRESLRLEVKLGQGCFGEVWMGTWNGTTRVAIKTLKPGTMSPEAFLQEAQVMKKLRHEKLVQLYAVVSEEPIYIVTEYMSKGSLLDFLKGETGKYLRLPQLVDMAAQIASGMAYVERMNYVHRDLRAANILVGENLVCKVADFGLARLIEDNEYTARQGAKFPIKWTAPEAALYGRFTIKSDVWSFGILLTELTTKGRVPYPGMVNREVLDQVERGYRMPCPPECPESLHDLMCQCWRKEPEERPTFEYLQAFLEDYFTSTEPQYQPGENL
T1 sequence (P49840 whole entry): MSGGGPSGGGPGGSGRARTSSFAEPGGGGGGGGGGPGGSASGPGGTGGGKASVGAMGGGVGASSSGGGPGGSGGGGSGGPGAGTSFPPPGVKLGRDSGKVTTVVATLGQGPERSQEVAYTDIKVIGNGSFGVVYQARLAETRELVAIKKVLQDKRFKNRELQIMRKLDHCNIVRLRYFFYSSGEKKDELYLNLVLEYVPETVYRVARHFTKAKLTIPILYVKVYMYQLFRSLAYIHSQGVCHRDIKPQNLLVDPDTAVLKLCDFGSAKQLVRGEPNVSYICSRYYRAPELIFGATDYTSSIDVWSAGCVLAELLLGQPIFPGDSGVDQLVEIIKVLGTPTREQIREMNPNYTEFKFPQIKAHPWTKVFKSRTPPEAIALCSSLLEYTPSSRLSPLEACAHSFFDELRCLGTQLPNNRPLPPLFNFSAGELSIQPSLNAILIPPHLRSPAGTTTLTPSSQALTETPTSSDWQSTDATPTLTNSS

| Structure (SMILES) | pIC50 [1, 13] | pIC50 [2, 13] | pIC50 [3] | pIC50 [4] | pIC50 [5] | pIC50 [6] | inhibition at 5 µg/mL [7] | pIC50 ([1]; Table 4a1) | pIC50 ([2]; Table 4a1) | pIC50 [8] | pEC50 [9] | pIC50 [10] | pIC50 [11] | Cell viability at time point in d-U937 cells, 4 h [12] | Cell viability at time point in d-U937 cells, 24 h [12] |
| --- | --- | --- | --- | --- | --- | --- | --- | --- | --- | --- | --- | --- | --- | --- | --- |
| C#Cc1cc(Nc2nccc(Oc3ccc(NC(=O)Nc4cc(C(C)(C)C#N)nn4-c4ccc(C)cc4)c4ccccc34)n2)cc(C(=O)NCCN2CCOCC2)c1 [Example 78, 3-((4-((4-(3-(3-(2-Cyanopropan-2-yl)-1-(p-tolyl)-1H-pyrazol-5-yl)ureido)-naphthalen-1-yl)oxy)pyrimidin-2-yl)amino)-5-ethynyl-N-(2-morpholinoethyl)benzamide] | 8.10 | 7.64 | 5.55 | 9.05 | 7.56 | 8.62 | 2.1% | – | – | – | – | – | – | – | – |
| C#Cc1cc(Nc2nccc(Oc3ccc(NC(=O)Nc4cc(C(C)(C)C)nn4-c4ccc(OC)cc4)c4ccccc34)n2)cc(C(=O)N[C@@H](C)COC)c1 [Example 85, (S)-3-((4-((4-(3-(3-(tert-Butyl)-1-(4-methoxyphenyl)-1H-pyrazol-5-yl)ureido)-naphthalen-1-yl)oxy)pyrimidin-2-yl)amino)-5-ethynyl-N-(1-methoxypropan-2-yl)-benzamide] | 7.48 | 7.04 | 5.10 | 8.55 | 7.56 | 8.51 | 6.6% | – | – | – | – | – | – | – | – |
| C#Cc1cc(Nc2nccc(Oc3ccc(NC(=O)Nc4cc(C(C)(C)C)nn4-c4ccc(C)cc4)c4ccccc34)n2)cc(C(=O)NC(C)(C)CN2CCOCC2)c1 [Example 82, 3-((4-((4-(3-(3-(tert-Butyl)-1-(p-tolyl)-1H-pyrazol-5-yl)ureido)naphthalen-1-yl)oxy)pyrimidin-2-yl)amino)-5-ethynyl-N-(2-methyl-1-morpholinopropan-2-yl)-benzamide] | – | – | 4.92 | 8.15 | 7.43 | 8.41 | -6.3% | – | – | – | – | – | – | – | – |
| C#Cc1cc(Nc2nccc(Oc3ccc(NC(=O)Nc4cc(C(C)(C)C)nn4-c4ccc(OC)cc4)c4ccccc34)n2)cc(C(=O)NCCOC)c1 [Example 84, 3-((4-((4-(3-(3-(tert-Butyl)-1-(4-methoxyphenyl)-1H-pyrazol-5-yl)ureido)-naphthalen-1-yl)oxy)pyrimidin-2-yl)amino)-5-ethynyl-N-(2-methoxyethyl)benzamide] | 7.82 | 7.48 | ≤ 4.86 | 8.80 | 7.80 | 8.66 | 0.5% | – | – | – | – | – | – | – | – |
| Cc1ccc(-n2nc(C(C)C)cc2NC(=O)Nc2ccc(Oc3ccnc(Nc4cc(C)cc(C(=O)NCCN5CCOCC5)c4)n3)c3ccccc23)cc1 [Example 44, 3-((4-((4-(3-(3-isopropyl-1-(p-tolyl)-1H-pyrazol-5-yl)ureido)naphthalen-1-yl)oxy)pyrimidin-2-yl)amino)-5-methyl-N-(2-morpholinoethyl)benzamide] | – | – | – | – | – | – | 37.2% | 8.05 | 7.77 | 5.40 | 9.70 | 9.52 | 8.72 | −ve (−ve and +ve indicate that the value is below and above respectively, the no significant effect threshold, defined as 30% inhibition at 1 μg/mL at the time point indicated) | −ve (−ve and +ve indicate that the value is below and above respectively, the no significant effect threshold, defined as 30% inhibition at 1 μg/mL at the time point indicated) |
| Cc1ccc(-n2nc(C(C)(C)C)cc2NC(=O)Nc2ccc(Oc3ccnc(Nc4cccc(C(N)=O)c4)n3)c3ccccc23)cc1 [Example 2, 3-((4-((4-(3-(3-(tert-Butyl)-1-(p-tolyl)-1H-pyrazol-5-yl)ureido)naphthalen-1-yl)oxy)pyrimidin-2-yl)amino)benzamide] | – | – | – | – | – | – | 46.5% | 8.30 | 6.60 | 5.90 | 9.10 | 8.35 | 9.00 | −ve (−ve and +ve indicate that the value is below and above respectively, the no significant effect threshold, defined as 30% inhibition at 1 μg/mL at the time point indicated) | −ve (−ve and +ve indicate that the value is below and above respectively, the no significant effect threshold, defined as 30% inhibition at 1 μg/mL at the time point indicated) |
| COc1cc(Nc2nccc(Oc3ccc(NC(=O)Nc4cc(C(C)C)nn4-c4ccc(C)cc4)c4ccccc34)n2)cc(C(=O)NCCN(C)C)c1 [Example 5, N-(2-(Dimethylamino)ethyl)-3-((4-((4-(3-(3-isopropyl-1-(p-tolyl)-1H-pyrazol-5-yl)ureido)naphthalen-1-yl)oxy)pyrimidin-2-yl)amino)-5-methoxybenzamide] | – | – | – | – | – | – | 28.3% | 8.70 | 8.15 | 5.83 | 9.70 | 8.89 | 9.70 | −ve (−ve and +ve indicate that the value is below and above respectively, the no significant effect threshold, defined as 30% inhibition at 1 μg/mL at the time point indicated) | −ve (−ve and +ve indicate that the value is below and above respectively, the no significant effect threshold, defined as 30% inhibition at 1 μg/mL at the time point indicated) |
| COc1cc(Nc2nccc(Oc3ccc(NC(=O)Nc4cc(C(C)C)nn4-c4ccc(C)cc4)c4ccccc34)n2)cc(C(=O)N2CCOCC2)c1 [Example 12, 1-(3-Isopropyl-1-(p-tolyl)-1H-pyrazol-5-yl)-3-(4-((2-((3-methoxy-5-(morpholine-4-carbonyl)phenyl)amino)pyrimidin-4-yl)oxy)naphthalen-1-yl)urea] | – | – | – | – | – | – | 27.8% | 8.30 | 7.80 | 6.29 | 9.30 | 9.00 | 8.60 | −ve (−ve and +ve indicate that the value is below and above respectively, the no significant effect threshold, defined as 30% inhibition at 1 μg/mL at the time point indicated) | −ve (−ve and +ve indicate that the value is below and above respectively, the no significant effect threshold, defined as 30% inhibition at 1 μg/mL at the time point indicated) |
